Reference: patent publication US7875587B2, “Peptide analogues of GIP for treatment of diabetes, insulin resistance and obesity” (UUTECH Limited, priority 2004, dated 2011)
No end group written: not given here.

Tests used:
[1] = test system: BRIN-BD11 cells; assay: Insulin release from clonal pancreatic BRIN-BD11 cells (Example 6); assay type: cell-based; conditions: 5.6 mmol/l glucose, 20 minutes incubation
Protocol: Cells and cell culture. Chinese hamster lung (CHL) fibroblasts stably transfected with the human GIP receptor (Gremlich, S. et al., 1995, Diabetes 44: 1202-1208) were cultured in DMEM tissue culture medium containing 10% (v/v) FBS, 1% (v/v) antibiotics (100 U/ml penicillin, 0.1 mg/ml streptomycin). Clonal pancreatic BRIN-BD11 cells (McClenaghan, N. H. et al., 1996, Diabetes 45: 1132-1140) were cultured using RPMI-1640 culture medium containing 10% (v/v) FBS, 1% (v/v) antibiotics (100 U/ml penicillin, 0.1 mg/ml streptomycin) and 11.1 mmol/l glucose. Cells were maintained at 37° C. in an atmosphere of 5% CO2 and 95% air using an LEEC incubator (Laboratory Technical Engineering, Nottingham, UK).
Insulin-release studies were carried out using clonal pancreatic BRIN-BD11 cells as described previously (O'Harte, F. P. M. et al., 2002, Diabetologia 45: 1281-1291). Briefly, BRIN-BD11 cells were seeded into 24-well plates at a density of 10^5 cells per well, and allowed to attach overnight at 37° C. Acute tests for insulin release were preceded by 40 minutes pre-incubation at 37° C. in 1.0 ml Krebs Ringer bicarbonate buffer supplemented with 1.1 mmol/l glucose. Test incubations were performed in the presence of 5.6 mmol/l glucose with a range of concentrations (10^−13 to 10^−6 mol/l) of GIP and GIP analogues. After 20 minutes incubation, the buffer was removed from each well and aliquots (200 μl) used for measurement of insulin.

[2] = molecular target: T1, purified porcine dipeptidylpeptidase IV (Sus scrofa, UniProt P22411); assay: DPP IV degradation studies of fatty acid derivatised GIP analogues; assay type: in vitro ADME
T1 construct: purchased Sigma (Poole, Dorset, UK)
T1 sequence (P22411 whole entry): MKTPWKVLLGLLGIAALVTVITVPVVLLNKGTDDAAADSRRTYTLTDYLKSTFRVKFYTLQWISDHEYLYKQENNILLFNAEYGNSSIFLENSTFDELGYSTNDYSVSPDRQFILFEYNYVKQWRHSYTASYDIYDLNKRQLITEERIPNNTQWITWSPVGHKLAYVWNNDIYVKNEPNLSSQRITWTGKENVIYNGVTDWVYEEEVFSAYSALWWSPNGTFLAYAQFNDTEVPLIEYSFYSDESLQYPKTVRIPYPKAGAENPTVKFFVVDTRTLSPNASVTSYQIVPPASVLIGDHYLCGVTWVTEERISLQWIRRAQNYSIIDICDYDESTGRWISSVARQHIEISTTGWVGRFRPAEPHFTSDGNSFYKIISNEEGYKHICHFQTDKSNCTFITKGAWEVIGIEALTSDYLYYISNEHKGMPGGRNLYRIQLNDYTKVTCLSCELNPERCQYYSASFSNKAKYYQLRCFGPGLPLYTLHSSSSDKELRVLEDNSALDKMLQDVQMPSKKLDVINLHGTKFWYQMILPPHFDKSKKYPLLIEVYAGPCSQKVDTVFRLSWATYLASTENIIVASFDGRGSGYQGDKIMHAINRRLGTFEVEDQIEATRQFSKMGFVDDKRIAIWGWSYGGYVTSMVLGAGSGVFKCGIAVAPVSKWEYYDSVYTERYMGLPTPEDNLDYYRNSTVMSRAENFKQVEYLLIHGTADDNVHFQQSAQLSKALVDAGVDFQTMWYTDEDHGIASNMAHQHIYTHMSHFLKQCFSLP
Protocol: DPP IV degradation studies. GIP and fatty acid derivatised GIP analogues were incubated at 37° C. with purified porcine dipeptidylpeptidase IV (5 mU in 50 mmol/l triethanolamine-HCl; pH 7.8) for 0, 2, 4, 8 and 24 hours (final peptide concentration 2 mmol/l). The reactions were subsequently terminated by addition of 10% (v/v) TFA/water and the reaction products separated using HPLC. […] HPLC peak area data were used to calculate % intact peptide remaining throughout the incubation.

[3] = test system: BRIN-BD11 cells; assay: Acute tests for insulin secretion from BRIN-BD11 cells; assay type: cell-based; conditions: 5.6 and 16.7 mM glucose, 10^-13 to 10^-8 M peptide
Protocol: Culture of insulin secreting cells. BRIN-BD11 cells were cultured in sterile tissue culture flasks (Corning, Glass Works, UK) using RPMI-1640 tissue culture medium containing 10% (v/v) foetal calf serum, 1% (v/v) antibiotics (100 U/ml penicillin, 0.1 mg/ml streptomycin) and 11.1 mM glucose. The cells were maintained at 37° C. in an atmosphere of 5% CO2 and 95% air using a LEEC incubator (Laboratory Technical Engineering, Nottingham, UK).
Acute tests for insulin secretion. Before experimentation, the cells were harvested from the surface of the tissue culture flasks with the aid of trypsin/EDTA (Gibco), seeded into 24-multiwell plates (Nunc, Roskilde, Denmark) at a density of 1.5×10^5 cells per well, and allowed to attach overnight at 37° C. Acute tests for insulin release were preceded by 40 minutes pre-incubation at 37° C. in 1.0 ml Krebs Ringer bicarbonate buffer (115 mM NaCl, 4.7 mM KCl, 1.28 mM CaCl2, 1.2 mM KH2PO4, 1.2 mM MgSO4, 10 mM NaHCO3, 5 g/l bovine serum albumin, pH 7.4) supplemented with 1.1 mM glucose. Test incubations were performed (n=12) at two glucose concentrations (5.6 mM and 16.7 mM) with a range of concentrations (10^−13 to 10^−8 M) of GIP or GIP analogues. After 20 minutes incubation, the buffer was removed from each well and aliquots (200 μl) were used for measurement of insulin by radioimmunoassay.

% Intact peptide remaining after time (hours) ([2]; pig, 0 h) | % Intact peptide remaining after time (hours) ([2]; pig, 2 h) | % Intact peptide remaining after time (hours) ([2]; pig, 8 h) | Molecule | insulin secretion compared to control [1] | insulin secretion from BRIN-BD11 cells [3] | % Intact peptide remaining after time (hours) ([2]; incubation with DPP IV, 0 h) | % Intact peptide remaining after time (hours) ([2]; incubation with DPP IV, 24 h)
100% | 52±3% | entirely degraded | CC[C@H](C)[C@H](NC(=O)[C@H](CO)NC(=O)[C@H](Cc1ccc(O)cc1)NC(=O)[C@H](CC(=O)O)NC(=O)[C@H](CO)NC(=O)[C@@H](NC(=O)[C@H](Cc1ccccc1)NC(=O)[C@@H](NC(=O)CNC(=O)[C@H](CCC(=O)O)NC(=O)[C@H](C)NC(=O)[C@@H](N)Cc1ccc(O)cc1)[C@@H](C)O)[C@@H](C)CC)C(=O)N[C@@H](C)C(=O)N[C@@H](CCSC)C(=O)N[C@@H](CC(=O)O)C(=O)N[C@@H](CCCCN)C(=O)N[C@H](C(=O)N[C@@H](Cc1c[nH]cn1)C(=O)N[C@@H](CCC(N)=O)C(=O)N[C@@H](CCC(N)=O)C(=O)N[C@@H](CC(=O)O)C(=O)N[C@@H](Cc1ccccc1)C(=O)N[C@H](C(=O)N[C@@H](CC(N)=O)C(=O)N[C@@H](Cc1c[nH]c2ccccc12)C(=O)N[C@@H](CC(C)C)C(=O)N[C@@H](CC(C)C)C(=O)N[C@@H](C)C(=O)N[C@@H](CCC(N)=O)C(=O)N[C@@H](CCCCN)C(=O)NCC(=O)N[C@@H](CCCCN)C(=O)N[C@@H](CCCCN)C(=O)N[C@@H](CC(N)=O)C(=O)N[C@@H](CC(=O)O)C(=O)N[C@@H](Cc1c[nH]c2ccccc12)C(=O)N[C@@H](CCCCN)C(=O)N[C@@H](Cc1c[nH]cn1)C(=O)N[C@@H](CC(N)=O)C(=O)N[C@H](C(=O)N[C@H](C(=O)N[C@@H](CCC(N)=O)C(=O)O)[C@@H](C)O)[C@@H](C)CC)C(C)C)[C@@H](C)CC [GIP 1–42, reference compound] | dose-dependently stimulated insulin secretion | prominent and dose-related stimulation of insulin secretion | – | –
– | – | – | CCCCCCCCCCCCCCCC(=O)NCCCC[C@H](NC(=O)[C@H](Cc1c[nH]c2ccccc12)NC(=O)[C@H](CC(=O)O)NC(=O)[C@H](CC(N)=O)NC(=O)[C@H](CCCCN)NC(=O)[C@H](CCCCN)NC(=O)CNC(=O)[C@H](CCCCN)NC(=O)[C@H](CCC(N)=O)NC(=O)[C@H](C)NC(=O)[C@H](CC(C)C)NC(=O)[C@H](CC(C)C)NC(=O)[C@H](Cc1c[nH]c2ccccc12)NC(=O)[C@H](CC(N)=O)NC(=O)[C@@H](NC(=O)[C@H](Cc1ccccc1)NC(=O)[C@H](CC(=O)O)NC(=O)[C@H](CCC(N)=O)NC(=O)[C@H](CCC(N)=O)NC(=O)[C@H](Cc1c[nH]cn1)NC(=O)[C@@H](NC(=O)[C@H](CCCCN)NC(=O)[C@H](CC(=O)O)NC(=O)[C@H](CCSC)NC(=O)[C@H](C)NC(=O)[C@@H](NC(=O)[C@H](CO)NC(=O)[C@H](Cc1ccc(O)cc1)NC(=O)[C@H](CC(=O)O)NC(=O)[C@H](CO)NC(=O)[C@@H](NC(=O)[C@H](Cc1ccccc1)NC(=O)[C@@H](NC(=O)CNC(=O)[C@H](CCC(=O)O)NC(=O)[C@H](C)NC(=O)[C@H](Cc1ccc(O)cc1)NC(C)=O)[C@@H](C)O)[C@@H](C)CC)[C@@H](C)CC)[C@@H](C)CC)C(C)C)C(=O)N[C@@H](Cc1c[nH]cn1)C(=O)N[C@@H](CC(N)=O)C(=O)N[C@H](C(=O)N[C@H](C(=O)N[C@@H](CCC(N)=O)C(=O)O)[C@@H](C)O)[C@@H](C)CC [N-AcGIP(LysPAL^37)] | significantly stimulated glucose-induced insulin secretion | – | 100% | remained completely intact
– | – | – | YAPGTFISDYSIAMDKIHQQDFVNWLLAQKGKKNDWKHNITQ [(Pro^3)GIP] | – | least potent analogues in terms of insulin release | – | –
